Earlier results on one compound are cited in US20240082160A1, “AMLODIPINE DRY SUSPENSION AND PREPARATION METHOD THEREFOR” (GUANGZHOU APICHOPE PHARMACEUTICAL CO., LTD., priority 2021, published 2024).

Take `CCOC(=O)C1=C(COCCN)NC(C)=C(C(=O)OC)C1c1ccccc1Cl` (stereo not shown) [amlodipine besylate]: the solubility in water result is given as “slightly soluble in water”.
